Measured values as given in patent US20170319572A1, “COMBINATION DRUG TREATMENT FOR HEPATITIS C INFECTION” (JANSSEN PHARMACEUTICALS, INC., priority 2015, published 2017).
“Also recorded” adds a separate entry of the source.

Legend:
OATP1B1 = target: T1, OATP1B1 (Homo sapiens, UniProt Q9Y6L6); settings: cited from earlier work
T1 sequence (Q9Y6L6 1-691): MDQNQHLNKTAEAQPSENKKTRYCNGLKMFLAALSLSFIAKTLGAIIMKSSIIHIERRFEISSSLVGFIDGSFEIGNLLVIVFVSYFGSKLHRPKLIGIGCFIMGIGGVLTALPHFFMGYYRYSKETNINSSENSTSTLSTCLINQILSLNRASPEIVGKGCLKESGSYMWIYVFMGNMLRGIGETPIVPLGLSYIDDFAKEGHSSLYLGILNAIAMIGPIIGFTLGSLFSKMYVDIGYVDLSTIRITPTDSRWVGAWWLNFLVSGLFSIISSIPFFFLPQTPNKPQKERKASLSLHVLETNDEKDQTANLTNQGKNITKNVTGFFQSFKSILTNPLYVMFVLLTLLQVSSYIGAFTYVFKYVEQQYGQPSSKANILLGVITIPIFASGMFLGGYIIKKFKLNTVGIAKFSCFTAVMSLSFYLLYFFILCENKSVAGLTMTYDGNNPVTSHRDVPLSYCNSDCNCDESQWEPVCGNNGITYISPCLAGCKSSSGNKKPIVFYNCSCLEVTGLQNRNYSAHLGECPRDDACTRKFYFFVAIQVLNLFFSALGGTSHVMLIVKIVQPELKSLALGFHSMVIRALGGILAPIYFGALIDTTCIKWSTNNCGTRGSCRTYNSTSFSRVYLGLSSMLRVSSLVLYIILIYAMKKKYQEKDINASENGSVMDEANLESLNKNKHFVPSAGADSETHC

CYP (any CYP) = assay: CYP inhibition; settings: on any CYP
[1] = Drug-drug interaction study in humans (Phase-1, open-label, two-group, fixed-sequence, PK); settings: for increase of exposure caused by SMV: co-administration of SMV
Experimental: A drug-drug interaction study (DDI) study is a study designed to investigate whether a drug alters the pharmacokinetics of another drug or drugs or their metabolites.
Compound (III)—Subjects received 800 mg of Compound (III) once daily from Days 1-3, Days 11-13, and Days 21-23. PK blood samples for determination of Compound (III) and metabolite concentrations were collected in reference to the Day 3, Day 13, and Day 23 doses.
Simeprevir—Subjects received 150 mg of Simeprevir (SMV) once daily from Days 4-23. PK blood samples for determination of SMV concentrations were collected in reference to the Day 10, Day 13, Day 20, and Day 23 doses.
Odalasvir—Subjects received a loading dose of 150 mg on Day 14, and 50 mg of Odalasvir once daily from Days 15-23. PK blood samples for determination of Odalasvir concentrations were collected in reference to the Day 20 and Day 23 doses.
Compound (III)—Subjects received 800 mg of Compound (III) once daily from Days 1-3, Days 11-13 and Days 21-23. PK blood samples for determination of Compound (III) and metabolite concentrations were collected in reference to the Day 3, Day 13, and Day 23 doses.
Simeprevir—Subjects receive 150 mg of SMV once daily from Days 4-23. PK blood samples for determination of SMV concentrations were collected in reference to the Day 20 and Day 23 doses.
Odalasvir—Subjects receive a loading dose of 150 mg on Day 4, and 50 mg of Odalasvir once daily from Days 5-23. PK blood samples for determination of Odalasvir concentrations were collected in reference to the Day 10, Day 13, Day 20, and Day 23 doses.
This drug-drug interaction study was intended to assess the safety and tolerability of the described drug combinations at pre-defined time points throughout the study. Study completion/follow-up visit(s) were performed 7 and 28 days after completion of the last study assessment.
A primary objective was to evaluate the effect of multiple oral doses of Odalasvir (alone), Simeprevir (alone), and Odalasvir and Simeprevir on the multiple oral dose PK of Compound (III) (and certain metabolites thereof, such as the major metabolites in systemic circulation) in healthy volunteers. Other objectives were to evaluate the safety and tolerability of multiple oral doses of Compound (III) when administered alone and in combination with single and multiple oral doses of Odalasvir and/or Simeprevir in healthy volunteers; to determine the potential effect of Compound of Compound (III) and/or Odalasvir on the steady-state PK of Simeprevir in healthy volunteers; to determine the potential effect of Compound of Compound (III) and/or Simeprevir on the steady state PK of Odalasvir in healthy volunteers.
Various other PK parameters were estimated including: Clast, t1/2, Tmax, Tlast, CL/F, Vz/F, and λz.
The following daily doses were employed:
Odalasvir: 150 mg loading dose; 50 mg for the remainder of the study period.

BCRP = target: T2, BCRP (Homo sapiens, UniProt Q9UNQ0); settings: cited from earlier work
T2 sequence (Q9UNQ0 1-655): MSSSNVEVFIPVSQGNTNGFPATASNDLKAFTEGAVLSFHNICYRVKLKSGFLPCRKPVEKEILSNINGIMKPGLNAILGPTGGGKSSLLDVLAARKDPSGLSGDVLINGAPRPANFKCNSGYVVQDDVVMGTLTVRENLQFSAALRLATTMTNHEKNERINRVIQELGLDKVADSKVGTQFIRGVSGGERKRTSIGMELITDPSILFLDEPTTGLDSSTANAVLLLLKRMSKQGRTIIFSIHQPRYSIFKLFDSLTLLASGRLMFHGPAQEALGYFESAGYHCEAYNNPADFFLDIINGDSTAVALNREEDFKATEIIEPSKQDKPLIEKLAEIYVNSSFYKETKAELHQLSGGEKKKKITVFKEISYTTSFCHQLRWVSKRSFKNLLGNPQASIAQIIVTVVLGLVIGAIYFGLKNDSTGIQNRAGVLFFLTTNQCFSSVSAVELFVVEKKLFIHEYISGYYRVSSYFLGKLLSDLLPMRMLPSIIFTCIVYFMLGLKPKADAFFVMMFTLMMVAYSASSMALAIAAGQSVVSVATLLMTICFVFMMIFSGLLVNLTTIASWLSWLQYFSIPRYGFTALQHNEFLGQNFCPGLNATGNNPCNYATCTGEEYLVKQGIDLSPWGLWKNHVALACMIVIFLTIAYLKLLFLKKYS

SMILES | inhibition of OATP1B1 (OATP1B1) | CYP inhibition potential (CYP (any CYP)) | increase of exposure caused by Odalasvir ([1]; DDI study, co-administration of Odalasvir) [×] | increase of exposure caused by SMV ([1]; DDI study) [×] | Cmax ([1]; Group 1, Day 13, Compound (III) 800 mg QD + SMV 150 mg QD) [ng/mL] | Cmax ([1]; Group 1, Day 23, Compound (III) 800 mg + SMV 150 mg + ODV 50 mg QD) [ng/mL] | Cmax ([1]; Group 2, Day 3, Compound (III) 800 mg QD alone) [ng/mL] | Cmax ([1]; Group 2, Day 13, (Compound (III) + SMV) as printed in Table 1) [ng/mL] | Cmax ([1]; Group 2, Day 23, Compound (III) 800 mg + SMV 150 mg + ODV 50 mg QD) [ng/mL] | increase of exposure in the combination ([1]; both, human, in vivo) | Cmax ([1]; healthy volunteers, Group 1, Day 3, Compound (III) 800 mg QD alone) [ng/mL] | bioavailability with SMV and ODV co-administered compared to Compound (III) alone ([1]; human subjects) | inhibition of BCRP (BCRP) | increase of exposure, effect of the three Compounds ([1]; DDI study, Compound (III) + SMV + Odalasvir together) [×] | effect of Compound (III) on exposure/bioavailability ([1]; DDI study, co-administration of Compound (III)) | increase of exposure in the combination ([1]; human in vivo study (Example 1), three drugs combined) [times] | increase of exposure by SMV ([1]; human subjects) [fold]
CC(C)OC(=O)[C@H](C)N[P@](=O)(OC[C@@]1(F)O[C@@H](n2ccc(=O)[nH]c2=O)[C@](C)(O)[C@@H]1O)Oc1ccccc1 [Compound (III), isopropyl ((S)-(((2S,3S,4R,5R)-5-(2,4-dioxo-3,4-dihydropyrimidin-1 (2H)-yl)-2-fluoro-3,4-dihydroxy-4-methyltetrahydrofuran-2-yl)methoxy)(phenoxy)phosphoryl)-L-alaninate] | no in vitro inhibition | limited CYP inhibition potential | 4 | 3 | 376.2 | 746.6 | 150.7 | 515.9 | 949.6 | 7-8 times | 161.6 | approximately 8 fold | no in vitro inhibition |  |  |  | 
COC(=O)N[C@H](C(=O)N1[C@H](c2nc3cc(-c4cc5ccc4CCc4ccc(c(-c6ccc7[nH]c([C@@H]8C[C@@H]9CCCC[C@@H]9N8C(=O)[C@@H](NC(=O)OC)C(C)C)nc7c6)c4)CC5)ccc3[nH]2)C[C@@H]2CCCC[C@@H]21)C(C)C [ODV, methyl [(2S)-1-[(2S,3aS,7aS)-2-[6-[11-[2-[(2S,3aS,7aS)-1-[(2S)-2-[(methoxycarbonyl)amino]-3-methylbutanoyl]octahydro-1H-indol-2-yl]-1H-benzimidazol-6-yl]tricyclo[8.2.2.2^4,7]hexadeca-1(12),4,6,10,13,15-hexaen-5-yl]-1H-benzimidazol-2-yl]octahydro-1H-indol-1-yl]-3-methyl-1-oxobutan-2-yl]carbamate] | no inhibition | does not inhibit cytochrome P450 enzymes; also recorded: does not inhibit CYP450 activity |  | 1.6 |  |  |  |  |  |  |  |  | no inhibition | 1.5 | no apparent effect; also recorded: does not alter the bioavailability | 1.5 | 1.6
